Values of other authors in patent US7006921B1, “Method for accurately estimating pKa of molecules using atom type definitions and partial least squares” (priority 1999, dated 2006).

Settings: for Measured (pKa): first or only pKa; for Measured (pKa2): second value of the cell

Compound	Measured (pKa)	Measured (pKa2)
Nc1ccnnc1 [4-aminopyridazine]	6.65	
Oc1cccnc1 [3-hydroxypyridine]	4.80	8.74
O=C(O)c1cc(Br)c[nH]1 [4-bromopyrrol-2-carboxylic acid, 4-bromopyrrol-2-carboxylic acid]	4.06	
Nc1cc(Cl)ncn1 [4-amino-6-chloropyrimidine, 4-amino-6-chloropyrimidine]	2.10	
c1c[nH]cn1 [imidazole]	6.04	
O=C(O)c1cnn[nH]1 [1,2,3-triazole-4-carboxylic acid, 1,2,3-triazole-4-carboxylic acid]	3.22	
NC1CCCCCC1O (stereo not shown) [2-aminocycloheptanol]	9.25	
COc1cc(C(=O)O)cc(OC)c1O [4-hydroxy-3,5-dimethoxybenzoic acid, 4-hydroxy-3,5-dimethoxybenzoic acid]	4.34	
CC(=O)C(CC(=O)O)C(=O)O (stereo not shown) [2-acetylbutanedioic acid, 2-acetylbutanedioic acid]	2.86	
Oc1c(O)c(O)c(O)c(O)c1O [Benzenehexol]	9.0	
O=C(O)c1cc[nH]n1 [Pyrazole-3-carboxlylic acid, Pyrazole-3-carboxlylic acid]	3.74	

More lines, now with the values ahead:

Measured (pKa)	Measured (pKa2)	Compound
8.28		CC#CCN(C)C [N,N-dimethyl-2-butyn-1-amine, N,N-dimethyl-2-butyn-1-amine]
2.63		O=C(O)c1coc(C(=O)O)c1 [Furan-2,4-dicarboxylic acid, Furan-2,4-dicarboxylic acid]
6.2		C1N2CN3CN1CN(C2)C3 [Hexamethylenetetramine]
2.17	9.20	CSCC[C@H](N)C(=O)O [Methionine]
9.82		NCCNCCO [5-amino-3-azapentanol, 5-amino-3-azapentanol]
2.60		COc1cncc(Br)c1 [3-bromo-5-methoxypyridine, 3-bromo-5-methoxypyridine]
1.80		Nc1ccc(Br)c([N+](=O)[O-])c1 [4-bromo-3-nitroaniline, 4-bromo-3-nitroaniline]
10.23		CC(C)NCC(O)C1CCC(O)CC1 (stereo not shown) [1-(4′-hydroxycyclohexyl)-2-(isopropylamino)-ethanol]
3.26		CC(=O)c1cccnc1 [3-acetylpyridine]
9.47		NCCSCCSCCN [1,8-diamino-3,6-dithiaoctane, 1,8-diamino-3,6-dithiaoctane]
9.71		Cc1cc(O)cc(C)c1Cl [4-chloro-3,5-dimethylphenol, 4-chloro-3,5-dimethylphenol]
2.5		O=C(O)c1ccc(Br)cc1C(=O)O [4-bromo-1,2-benzenedicarboxylic acid, 4-bromo-1,2-benzenedicarboxylic acid]
8.31		CNCC(N)=O [2-(methylamino)-acetamide, 2-(methylamino)-acetamide]
9.12		Oc1cccc(O)c1O [Pyrogallol]
8.35		CC(=O)OCCN(C)C [2-(dimethylamino)-ethyl acetate, 2-(dimethylamino)-ethyl acetate]
